Here are results for 89 sequences from the OligoGym collection.

Where “and” joins values, the source holds several entries; their conditions need not be identical. Identical values can stand only once. After the bases stand the sugars from the 5' end (letter, count) and the backbone: PS all phosphorothioate, else s phosphorothioate and o phosphodiester by linkage. Methylation of C is not given here. e = 2'-O-(2-methoxyethyl) (MOE); k = constrained ethyl (cEt); d = 2'-deoxy (DNA)

In one data set the target is IRF4. As to conditions: ASO, MM.1R, 0.074 µM.
For the sequence CTTCCCTGAGAAATGG (sugars k3 d10 k3, PS), the target mRNA inhibition was determined as 6%.
Consider GAGCCTGGGACTCAGG (sugars k3 d10 k3, PS), for which the target mRNA inhibition turned out to be 3%.

Staying with this data set, now noted: ASO, MM.1R, 0.222 µM.
For the sequence CTTCCCTGAGAAATGG (sugars k3 d10 k3, PS), the target mRNA inhibition stood at 2%.
Consider GAGCCTGGGACTCAGG (sugars k3 d10 k3, PS), for which the target mRNA inhibition was determined as 4%.

The data set is the same for the next values; noted with them: ASO, MM.1R, 0.666 µM.
As for CTTCCCTGAGAAATGG (sugars k3 d10 k3, PS), the target mRNA inhibition was found to be 1%.
Still for that read-out and setting: the result for GAGCCTGGGACTCAGG (sugars k3 d10 k3, PS) reads -3%.

Still in this data set, the particulars now being: ASO, MM.1R, 1 µM.
For “CTGCTTGAGGTTTTCC (sugars k2 d9 e3 k2, PS)”, the target mRNA inhibition is 31%.
Regarding “CTGCTTGAGGTTTTCC (sugars kdddddddddkekeke, PS)”, the target mRNA inhibition is 20%.
As to “CTGCTTGAGGTTTTCC (sugars kkkdddddddddkeke, PS)”, the target mRNA inhibition was 50%.
CTGGTAACTGTATGGA (sugars k3 d10 k3, PS): the target mRNA inhibition came out at 17%.
As for “CTGTTACCGATGCTTC (sugars kdddddddddkekeke, PS)”, the target mRNA inhibition was 2% and 24%.
“CTTGATAAAGGCTGAA (sugars kddddddddddkekek, PS)”: the target mRNA inhibition amounted to 17%.
In the case of “CTTGATAAAGGCTGAA (sugars kdddddddddkekeke, PS)”, the target mRNA inhibition worked out at 5%.
For CTTGGTTCTCTATAGT (sugars k3 d10 k3, PS), the target mRNA inhibition worked out at 27%.
With “GAAGCATTTTATCATC (sugars kddddddddddkekek, PS)”, the target mRNA inhibition was -12%.
GAAGTACGAGCACATG (sugars k3 d10 k3, PS): the target mRNA inhibition was 18%.
Still for that read-out and setting: under “GAAGTTTACACTGGAT (sugars kdddddddddkekeke, PS)” stands 11%; under “GAAGTTTACACTGGAT (sugars kkddddddddddkeke, PS)”, 46%; under “GAAGTTTACACTGGAT (sugars kkdddddddddkdkdk, PS)”, 23%.
Take GACAGCCGAAGCATTT (sugars k3 d10 k3, PS): the target mRNA inhibition is 6%.
On the same count and under the same terms, the result for “GACAGTGACTTGCATC (sugars kdddddddddkekeke, PS)” reads 0%; that for “GACAGTGACTTGCATC (sugars kkddddddddddkeke, PS)”, 25%; that for “GACAGTGACTTGCATC (sugars kkdddddddddkdkdk, PS)”, -7%.
GACCAGAACTAATGTC (sugars k3 d10 k3, PS): the target mRNA inhibition was -27%.
Regarding GATAGATCTGTGGTAA (sugars k3 d10 k3, PS), the target mRNA inhibition turned out to be 22%.
For the sequence “GATGTGATAGCTGAGC (sugars kkdddddddddekeke, PS)”, the target mRNA inhibition stood at 53%.

Staying with this data set, now noted: ASO, MM.1R, 2 µM.
Regarding CTTCCCTGAGAAATGG (sugars k3 d10 k3, PS), the target mRNA inhibition came to 4%.
Regarding GAGCCTGGGACTCAGG (sugars k3 d10 k3, PS), the target mRNA inhibition came out at 7%.

Staying with this data set, now noted: ASO, SK-MEL-28, 0.185 µM.
For CTTCCCTGAGAAATGG (sugars k3 d10 k3, PS), the target mRNA inhibition amounted to 16%.
On to GAGCCTGGGACTCAGG (sugars k3 d10 k3, PS), for which the target mRNA inhibition is 7%.

The data set is the same for the next values; noted with them: ASO, SK-MEL-28, 4 µM.
As to CTGCATGAGGGTGACA (sugars k3 d10 k3, PS), the target mRNA inhibition stood at 19%.
Consider CTGCTTGAGGTTTTCC (sugars k3 d10 k3, PS), for which the target mRNA inhibition is 74%.
In the case of CTGGACAGCCAAACAA (sugars k3 d10 k3, PS), the target mRNA inhibition was 21%.
CTGGAGAGAACTCATG (sugars k3 d10 k3, PS): the target mRNA inhibition was 38%.
As to CTGGATTGATGTGATA (sugars k3 d10 k3, PS), the target mRNA inhibition is 43%.
With CTGGCACCAAAAGTAC (sugars k3 d10 k3, PS), the target mRNA inhibition is 18%.
Consider CTGGCATTGAGACGGG (sugars k3 d10 k3, PS), for which the target mRNA inhibition is 61%.
Same read-out and setting: under CTGGGTTTTCTGTAGG (sugars k3 d10 k3, PS) stands 48%.
Consider CTGGTTCGCGCTCCGG (sugars k3 d10 k3, PS), for which the target mRNA inhibition worked out at 7%.
Regarding CTGTACACTTTGTACG (sugars k3 d10 k3, PS), the target mRNA inhibition was 34%.
For the sequence CTGTAGGGCGACTAAC (sugars k3 d10 k3, PS), the target mRNA inhibition was found to be 49%.
In the case of CTGTTAAGTCCCATCT (sugars k3 d10 k3, PS), the target mRNA inhibition amounted to 54%.
CTTAATTCTGGGTTAA (sugars k3 d10 k3, PS): the target mRNA inhibition turned out to be 53%.
Turning to CTTACTAGGTGCTTGT (sugars k3 d10 k3, PS), the target mRNA inhibition is 38%.
For the sequence CTTATTATTTATGAGC (sugars k3 d10 k3, PS), the target mRNA inhibition amounted to 37%.
On the same count and under the same terms, the result for CTTCAACAGCACTGTC (sugars k3 d10 k3, PS) reads 56%; that for CTTCACTGTTAGCTAC (sugars k3 d10 k3, PS), 51%.
Consider CTTCAGCAAAGAGGGT (sugars k3 d10 k3, PS), for which the target mRNA inhibition is 59%.
Regarding CTTCCAAGACAGCTTC (sugars k3 d10 k3, PS), the target mRNA inhibition worked out at 63%.
Turning to CTTCCCTGAGAAATGG (sugars k3 d10 k3, PS), the target mRNA inhibition was 50%.
For the sequence CTTGAAAAGCCAATGC (sugars k3 d10 k3, PS), the target mRNA inhibition was 58%.
Consider CTTGAAGAGCGCGGCG (sugars k3 d10 k3, PS), for which the target mRNA inhibition was 21%.
For the sequence CTTGAGGTTTTCCTAA (sugars k3 d10 k3, PS), the target mRNA inhibition stood at 40%.
CTTTAACAAGTCCTCA (sugars k3 d10 k3, PS): the target mRNA inhibition came to 52%.
Consider CTTTTACCCACCAAAG (sugars k3 d10 k3, PS), for which the target mRNA inhibition was determined as 18%.
Turning to CTTTTTAGTTCATACC (sugars k3 d10 k3, PS), the target mRNA inhibition was found to be 37%.
On to GAAAAGCAGCGAAAAG (sugars k3 d10 k3, PS), for which the target mRNA inhibition was found to be 2%.
GAAAGAATGGCGCATA (sugars k3 d10 k3, PS): the target mRNA inhibition amounted to 49%.
On the same count and under the same terms, the result for GAAAGATTCAGCCTCT (sugars k3 d10 k3, PS) reads 45%; that for GAACACCATGCCCAAC (sugars k3 d10 k3, PS), 7%.
As for GAACACTTTGAGGTGA (sugars k3 d10 k3, PS), the target mRNA inhibition is 14%.
Take GAACAGTAACTTGACT (sugars k3 d10 k3, PS): the target mRNA inhibition was found to be 4%.
In the case of GAACGGAAGTTTACAC (sugars k3 d10 k3, PS), the target mRNA inhibition was determined as 67%.
Same read-out and setting: under GAAGAAGGCACCTTCG (sugars k3 d10 k3, PS) stands 25%.
Consider GAAGCACTGGCATCGA (sugars k3 d10 k3, PS), for which the target mRNA inhibition is 44%.
Regarding GAAGGATGGGACCGCC (sugars k3 d10 k3, PS), the target mRNA inhibition turned out to be 41%.
Still for that read-out and setting: under GAATAAACACCCCTTC (sugars k3 d10 k3, PS) stands 44%; under GAATGAGGAAGCCGTT (sugars k3 d10 k3, PS), 39%.
Regarding GACACATTTTCTGGGT (sugars k3 d10 k3, PS), the target mRNA inhibition was 53% and 64%.
For GACACTTTTAGAGAGG (sugars k3 d10 k3, PS), the target mRNA inhibition was 87% and 78%.
Regarding GACAGATGACATGCTT (sugars k3 d10 k3, PS), the target mRNA inhibition amounted to 9%.
As to GACCACAGTGAAGTCG (sugars k3 d10 k3, PS), the target mRNA inhibition is 14%.
For the sequence GACCACGAGGCCCCGG (sugars k3 d10 k3, PS), the target mRNA inhibition was 31%.
As to GACCAGGATTCGCCAT (sugars k3 d10 k3, PS), the target mRNA inhibition amounted to 23%.
Consider GACCTAATCTACAACA (sugars k3 d10 k3, PS), for which the target mRNA inhibition worked out at 33%.
Turning to GACGACTTAAGCTAAA (sugars k3 d10 k3, PS), the target mRNA inhibition came out at 62%.
The same measure, in the same setting: under GACTACACCTACACAG (sugars k3 d10 k3, PS) stands 32%.
Regarding GACTCAAGAAAATAGG (sugars k3 d10 k3, PS), the target mRNA inhibition is 64%.
The same measure, in the same setting: the result for GACTTAGAGGACAGTG (sugars k3 d10 k3, PS) reads 48%; that for GACTTCGGGAGATACG (sugars k3 d10 k3, PS), 14%; that for GAGCACATGTCAACAG (sugars k3 d10 k3, PS), 40%.
On the same count and under the same terms, under GAGCACCAGCCATCGG (sugars k3 d10 k3, PS) stands 23%; under GAGCACCGCGCCGGAG (sugars k3 d10 k3, PS), 7%; under GAGCCTGGGACTCAGG (sugars k3 d10 k3, PS), 49%.
In the case of GAGCGAAGGGTAAGGC (sugars k3 d10 k3, PS), the target mRNA inhibition amounted to 38%.
As for GAGCTCTTCCAGATCC (sugars k3 d10 k3, PS), the target mRNA inhibition was found to be 5%.
Take GAGGAATGAGCACTCT (sugars k3 d10 k3, PS): the target mRNA inhibition was determined as 26%.
Turning to GAGGGAGCTCATTTTG (sugars k3 d10 k3, PS), the target mRNA inhibition is 24%.
For GAGTAAACTTGGCTGT (sugars k3 d10 k3, PS), the target mRNA inhibition turned out to be 38%.
The same measure, in the same setting: the result for GAGTACCCAAGACTCC (sugars k3 d10 k3, PS) reads 25%; that for GAGTCACCTGGAATCT (sugars k4 d8 k4, PS), 6%.
On the same count and under the same terms, the result for GAGTGCAGGAGAGGCT (sugars k3 d10 k3, PS) reads 31%; that for GATAACCTGAACATGA (sugars k3 d10 k3, PS), 17%.
GATAGCTGAGCTGATC (sugars k3 d10 k3, PS): the target mRNA inhibition is 32%.
For GATAGGAAGCACTGGC (sugars k3 d10 k3, PS), the target mRNA inhibition stood at 62%.
On to GATAGGTATACTTAAG (sugars k3 d10 k3, PS), for which the target mRNA inhibition was 51%.
Regarding GATAGTTAAGTACTTG (sugars k3 d10 k3, PS), the target mRNA inhibition came to 49%.
On to GATCATCAATGATGGC (sugars k3 d10 k3, PS), for which the target mRNA inhibition stood at 63%.
As for GATGAGGGACCAGAAC (sugars k3 d10 k3, PS), the target mRNA inhibition turned out to be 20%.

Still in this data set, the particulars now being: ASO, SK-MEL-28, 5 µM.
Turning to CTTCCCTGAGAAATGG (sugars k3 d10 k3, PS), the target mRNA inhibition came out at 60%.
Consider GAGCCTGGGACTCAGG (sugars k3 d10 k3, PS), for which the target mRNA inhibition is 58%.

Still in this data set, the particulars now being: ASO, SK-MEL-28, 15 µM.
In the case of CTTCCCTGAGAAATGG (sugars k3 d10 k3, PS), the target mRNA inhibition came out at 85%.
The same measure, in the same setting: the result for GAGCCTGGGACTCAGG (sugars k3 d10 k3, PS) reads 87%.
